# Measured values taken from ChEMBL document CHEMBL3885881, “DrugMatrix”.
# Species: Rattus norvegicus
# Assay: DrugMatrix - Regimen: Daily Repeat
# Assay type: toxicity, organism-based, Sprague-Dawley
# Set-up: regimen Daily Repeat, gender Male, age 6-8 weeks
# Conditions: in vivo, po, route oral GAVAGE, vehicle 100 % WATER; for ABSOLUTE BASOPHIL / ABSOLUTE EOSINOPHIL / ABSOLUTE LYMPHOCYTE / ABSOLUTE MONOCYTE / ABSOLUTE SEGMENTED NEUTROPHIL / BASOPHIL / EOSINOPHIL / ERYTHROCYTE COUNT / HEMATOCRIT / HEMOGLOBIN / LEUKOCYTE COUNT / LYMPHOCYTE / MEAN CORPUSCULAR HEMOGLOBIN / MEAN CORPUSCULAR HEMOGLOBIN CONCENTRATION / MEAN CORPUSCULAR VOLUME / MONOCYTE / NEUTROPHIL / NUCLEATED RED BLOOD CELLS / PLATELET COUNT: tissue Blood; for ALANINE AMINOTRANSFERASE / ALBUMIN / ALKALINE PHOSPHATASE / ASPARTATE AMINOTRANSFERASE / BLOOD UREA NITROGEN / CARBON DIOXIDE / CHLORIDE / CHOLESTEROL / CREATINE PHOSPHOKINASE / CREATININE / GLUCOSE / LACTATE DEHYDROGENASE / LIPASE / PHOSPHORUS / POTASSIUM / SODIUM / TOTAL BILIRUBIN / TOTAL PROTEIN / URIC ACID: tissue Plasma
# [1] = 10 mg/kg, 120 h, dose level Low, time 5 day
# [2] = 230 mg/kg, 72 h, dose level High, time 3 day
# [3] = 230 mg/kg, 120 h, dose level High, time 5 day
compound,measurement,setting,value
CCN(CC)CC#CCOC(=O)C(O)(c1ccccc1)C1CCCCC1 (centres undefined) [OXYBUTYNIN],ABSOLUTE BASOPHIL,[1],0 CELLS/uL
same,ABSOLUTE EOSINOPHIL,[1],0 CELLS/uL
same,ABSOLUTE LYMPHOCYTE,[1],12363 CELLS/uL
same,ABSOLUTE MONOCYTE,[1],41 CELLS/uL
same,ABSOLUTE SEGMENTED NEUTROPHIL,[1],1896 CELLS/uL
same,BASOPHIL,[1],0%
same,EOSINOPHIL,[1],0%
same,ERYTHROCYTE COUNT,[1],5.64 x10E6/uL
same,HEMATOCRIT,[1],34.63%
same,HEMOGLOBIN,[1],13.8 G/DL
same,LEUKOCYTE COUNT,[1],14.3 x10E3/uL
same,LYMPHOCYTE,[1],86.33%
same,MEAN CORPUSCULAR HEMOGLOBIN,[1],24.47 pg
same,MEAN CORPUSCULAR HEMOGLOBIN CONCENTRATION,[1],39.83 G/DL
same,MEAN CORPUSCULAR VOLUME,[1],61.4 fL
same,MONOCYTE,[1],0.33%
same,NEUTROPHIL,[1],13.33%
same,NUCLEATED RED BLOOD CELLS,[1],0 /100WBC
same,PLATELET COUNT,[1],1196.33 x10E3/uL
same,ALANINE AMINOTRANSFERASE,[1],57 u/L
same,ALBUMIN,[1],4.07 G/DL
same,ALKALINE PHOSPHATASE,[1],391.67 u/L
same,ASPARTATE AMINOTRANSFERASE,[1],79 u/L
same,BLOOD UREA NITROGEN,[1],17.67 mg/dL
same,CARBON DIOXIDE,[1],27 mmol/L
same,CHLORIDE,[1],99.67 MEQ/L
same,CHOLESTEROL,[1],67 mg/dL
same,CREATINE PHOSPHOKINASE,[1],306.33 u/L
same,CREATININE,[1],0.2 mg/dL
same,GLUCOSE,[1],152.33 mg/dL
same,LACTATE DEHYDROGENASE,[1],146.67 u/L
same,LIPASE,[1],9 u/L
same,PHOSPHORUS,[1],11.87 mg/dL
same,POTASSIUM,[1],6.33 MEQ/L
same,SODIUM,[1],141.53 MEQ/L
same,TOTAL BILIRUBIN,[1],0.23 mg/dL
same,TOTAL PROTEIN,[1],5.87 G/DL
same,URIC ACID,[1],1.93 mg/dL
same,ABSOLUTE BASOPHIL,[2],0 CELLS/uL
same,ABSOLUTE EOSINOPHIL,[2],99.33 CELLS/uL
same,ABSOLUTE LYMPHOCYTE,[2],11911 CELLS/uL
same,ABSOLUTE MONOCYTE,[2],110.67 CELLS/uL
same,ABSOLUTE SEGMENTED NEUTROPHIL,[2],1845.67 CELLS/uL
same,BASOPHIL,[2],0%
same,EOSINOPHIL,[2],0.67%
same,ERYTHROCYTE COUNT,[2],6.5 x10E6/uL
same,HEMATOCRIT,[2],39.53%
same,HEMOGLOBIN,[2],15.4 G/DL
same,LEUKOCYTE COUNT,[2],13.97 x10E3/uL
same,LYMPHOCYTE,[2],85.67%
same,MEAN CORPUSCULAR HEMOGLOBIN,[2],23.7 pg
same,MEAN CORPUSCULAR HEMOGLOBIN CONCENTRATION,[2],38.93 G/DL
same,MEAN CORPUSCULAR VOLUME,[2],60.77 fL
same,MONOCYTE,[2],0.67%
same,NEUTROPHIL,[2],13%
same,NUCLEATED RED BLOOD CELLS,[2],0 /100WBC
same,PLATELET COUNT,[2],1396.33 x10E3/uL
same,ALANINE AMINOTRANSFERASE,[2],51.33 u/L
same,ALBUMIN,[2],4.33 G/DL
same,ALKALINE PHOSPHATASE,[2],293.33 u/L
same,ASPARTATE AMINOTRANSFERASE,[2],83.33 u/L
same,BLOOD UREA NITROGEN,[2],16 mg/dL
same,CARBON DIOXIDE,[2],29.67 mmol/L
same,CHLORIDE,[2],98 MEQ/L
same,CHOLESTEROL,[2],57.33 mg/dL
same,CREATINE PHOSPHOKINASE,[2],488 u/L
same,CREATININE,[2],0.18 mg/dL
same,GLUCOSE,[2],140.67 mg/dL
same,LACTATE DEHYDROGENASE,[2],180 u/L
same,LIPASE,[2],9.67 u/L
same,PHOSPHORUS,[2],11.4 mg/dL
same,POTASSIUM,[2],6.48 MEQ/L
same,SODIUM,[2],141.17 MEQ/L
same,TOTAL BILIRUBIN,[2],0.23 mg/dL
same,TOTAL PROTEIN,[2],5.87 G/DL
same,URIC ACID,[2],2.47 mg/dL
same,ABSOLUTE BASOPHIL,[3],0 CELLS/uL
same,ABSOLUTE EOSINOPHIL,[3],0 CELLS/uL
same,ABSOLUTE LYMPHOCYTE,[3],14094.33 CELLS/uL
same,ABSOLUTE MONOCYTE,[3],0 CELLS/uL
same,ABSOLUTE SEGMENTED NEUTROPHIL,[3],1405.67 CELLS/uL
same,BASOPHIL,[3],0%
same,EOSINOPHIL,[3],0%
same,ERYTHROCYTE COUNT,[3],6.31 x10E6/uL
same,HEMATOCRIT,[3],37.53%
same,HEMOGLOBIN,[3],15.13 G/DL
same,LEUKOCYTE COUNT,[3],15.5 x10E3/uL
same,LYMPHOCYTE,[3],90.67%
same,MEAN CORPUSCULAR HEMOGLOBIN,[3],23.97 pg
same,MEAN CORPUSCULAR HEMOGLOBIN CONCENTRATION,[3],40.33 G/DL
same,MEAN CORPUSCULAR VOLUME,[3],59.43 fL
same,MONOCYTE,[3],0%
same,NEUTROPHIL,[3],9.33%
same,NUCLEATED RED BLOOD CELLS,[3],0 /100WBC
same,PLATELET COUNT,[3],1402.33 x10E3/uL
same,ALANINE AMINOTRANSFERASE,[3],64.67 u/L
same,ALBUMIN,[3],4.33 G/DL
same,ALKALINE PHOSPHATASE,[3],412.33 u/L
same,ASPARTATE AMINOTRANSFERASE,[3],87 u/L
same,BLOOD UREA NITROGEN,[3],15.67 mg/dL
same,CARBON DIOXIDE,[3],26.67 mmol/L
same,CHLORIDE,[3],100.33 MEQ/L
same,CHOLESTEROL,[3],59.67 mg/dL
same,CREATINE PHOSPHOKINASE,[3],224 u/L
same,CREATININE,[3],0.17 mg/dL
same,GLUCOSE,[3],140.33 mg/dL
same,LACTATE DEHYDROGENASE,[3],208.33 u/L
same,LIPASE,[3],9.33 u/L
same,PHOSPHORUS,[3],10 mg/dL
same,POTASSIUM,[3],6.76 MEQ/L
same,SODIUM,[3],143.4 MEQ/L
same,TOTAL BILIRUBIN,[3],0.2 mg/dL
same,TOTAL PROTEIN,[3],5.9 G/DL
same,URIC ACID,[3],2.23 mg/dL
